This is an account of results in patent publication US12637720B2, “Molecular subtyping of small cell lung cancer to predict therapeutic responses” (Board of Regents, The University of Texas System, priority 2019, dated 2026).

One series deals with SCLC cell lines. Description: Cisplatin CellTiter-Glo cell viability, IC50 compared between SCLC subtypes. In kind it is cell-based. How it is done: Drug response data. With the exception of cisplatin (Allison Stewart et al., 2017; Gay et al., 2019), drug response data included publicly available data sets (Polley et al., 2016). For cisplatin, cell lines were plated at 2,000 cells per well in 96-well plates 24 hours prior to treatment with drug using standard cell culture conditions. Each line was treated, in triplicate, with cisplatin at starting concentration of 10 μmon followed by 1:3 serial dilutions and DMSO-only control. Following 120-hour incubations, cell viability was assessed using CellTiter-Glo Luminescent Cell Viability Assay (Promega). IC50 values were estimated using software program drexplorer with fitting of multiple dose-response models and selection of best model using the residual standard error.
While there are biological differences between each subtype, it not known to what extent these differences yield distinct responses to anti-cancer therapies. To investigate subtype-specific vulnerabilities, SCLC cell line in vitro drug response data for over 500 drugs were used (Gay, 2019; Polley et al., 2016). […] For each subtype, a drug or drug class that worked especially well was identified, often accompanied by differential expression of the drug target or putative predictive biomarker.

The subject of series [1] is MDA-SC53 and MDA-SC68 CDX models. Description: Cisplatin treatment of CTC-derived xenograft (CDX) models. In kind it is in vivo, mice. An excerpt: Circulating-tumor cell derived xenograft model generation. Patients diagnosed with SCLC at the University of Texas MD Anderson Cancer Center were selected on the basis of extensive-stage disease irrespective of age, gender or other clinical criteria. These patients underwent informed consent to Institutional Review Board (IRB)-approved protocol LAB10-0442 (“Evaluation of blood-based test for the detection of circulating tumor cells and circulating proteins and microRNAs and molecular analysis for polymorphisms and mutations”) and blood was collected. Technical details are as previously described (Stewart et al., 2020b). One vial of blood was collected for isolation and banking of plasma and peripheral blood mononuclear cells for use as a normal control. […] Mice were monitored for formation of a flank tumor and were euthanized when tumor burden reached 1000-1500 mm^3. […]
Single-cell RNAseq. […] Cells were then stained for anti-human HLA A647 (Biolegend 311414), Calcein AM (C3100MP) and DAPI (Lifetech D1306, 1 μg/mL) and sorted by Fluorescence-Activated Cell sorting (FACS) to select only live, human cells for downstream single cell transcriptomic analyses. Sorted cells were washed once with 0.04% BSA in PBS and counted on Countess II automated cell counter (ThermoFisher). […]

The subject of a further series is platinum-resistant SCLC. The note with it: patients with platinum-resistant SCLC; cited from earlier work.
For the next series, the system named is relapsed SCLC. As to conditions: single-agent, relapsed SCLC patients, KEYNOTE-158; cited from earlier work.
For another series, the target named is T1, DLL3 (Homo sapiens, UniProt Q9NYJ7).
T1 construct: host or cells: SCLC tumours of patients in the clinical trial (endogenous DLL3)
T1 sequence (Q9NYJ7 27-618): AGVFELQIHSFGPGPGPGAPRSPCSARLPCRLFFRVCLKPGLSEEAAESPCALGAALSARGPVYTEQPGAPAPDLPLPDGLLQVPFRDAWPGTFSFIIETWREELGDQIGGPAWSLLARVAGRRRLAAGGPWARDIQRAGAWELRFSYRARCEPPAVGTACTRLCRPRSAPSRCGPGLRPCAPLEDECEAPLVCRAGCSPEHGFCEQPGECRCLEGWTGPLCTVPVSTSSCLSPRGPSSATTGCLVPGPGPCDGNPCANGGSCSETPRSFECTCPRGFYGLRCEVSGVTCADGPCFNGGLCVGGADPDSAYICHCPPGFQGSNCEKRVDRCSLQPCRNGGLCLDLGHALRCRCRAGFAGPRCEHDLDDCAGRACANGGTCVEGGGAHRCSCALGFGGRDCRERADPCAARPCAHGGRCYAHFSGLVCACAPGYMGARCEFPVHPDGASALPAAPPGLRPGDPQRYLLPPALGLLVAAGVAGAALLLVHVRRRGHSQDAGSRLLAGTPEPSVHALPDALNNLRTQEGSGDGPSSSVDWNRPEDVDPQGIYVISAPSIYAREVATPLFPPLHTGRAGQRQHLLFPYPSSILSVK
The note with it: cited from earlier work.

With `N.N.[Cl][Pt][Cl]` [cisplatin], in the series with SCLC cell lines (SCLC-A), the “cisplatin sensitivity of SCLC-A models” value is “range of sensitivities”. The “cisplatin sensitivity of SCLC-I models” value in the series with SCLC cell lines (SCLC-I) is reported as “resistant”. Also, the “cisplatin sensitivity of SCLC-N models” value with SCLC cell lines (SCLC-N) is on record as “resistant”. The “cisplatin sensitivity of SCLC-P models” value with SCLC cell lines (SCLC-P, mean IC50 versus other subtypes, trend) is “most sensitive”. Besides, the “response of CDX model to cisplatin” value was “cisplatin-resistant” in series [1] (MDA-SC68rel model, relapsed after in vivo cisplatin treatment) and “cisplatin-sensitive” in series [1] (treatment-naive MDA-SC68 parental model).
For the molecule “nivolumab: anti-PD-1 antibody described in WO2006/121168”, the “overall survival benefit versus chemotherapy” value in the series on platinum-resistant SCLC is “preferential OS benefit”.
For “pembrolizumab: anti-PD-1 antibody described in WO2009/114335”, in the series on relapsed SCLC, the response rate is recorded as 19%.

B1: rovalpituzumab tesirine: ADC targeting the inhibitory Notch ligand Delta-like ligand 3 (DLL3) (conjugate, chains of the INN, looked up)
VH: QVQLVQSGAEVKKPGASVKVSCKASGYTFTNYGMNWVRQAPGQGLEWMGWINTYTGEPTYADDFKGRVTMTTDTSTSTAYMELRSLRSDDTAVYYCARIGDSSPSDYWGQGTLVTVSS
VL: EIVMTQSPATLSVSPGERATLSCKASQSVSNDVVWYQQKPGQAPRLLIYYASNRYTGIPARFSGSGSGTEFTLTISSLQSEDFAVYYCQQDYTSPWTFGQGTKLEIK
modifications: tesirine
For B1, the clinical activity entry with DLL3 (Phase II clinical trial for SCLC) is on record as “only modest activity”. The toxicity entry with DLL3 (Phase II clinical trial, of the conjugated cytotoxic molecule) is “unexpected toxicity”.
